Measurements from a melting point compilation (Tetko et al.; mined from patent text by program, amines drawn as free bases though some values may be those of a salt).

First: CN(CC1CCN(CC2COc3ccccc3O2)CC1)c1nc2ccccc2s1 (stereo not drawn)
Second: O=C(C=Cc1cccnc1)NCCCCC1CCN(Cc2ccccc2)CC1
The melting point of the first is higher: 125 °C for the first, 88 to 90 °C for the second.

First: CCOC(=O)C(C(=O)OCC)c1ccc(NC(=O)c2cc3c(n(CC4CCCCC4)c2=O)CCCCCC3)c(C(F)(F)F)c1
Second: O=C1Nc2cccnc2N(C(=O)NCCN2CCC(CCCN3CCCCC3)CC2)c2cc(Cl)ccc21
The melting point of the first is lower: 160 to 162 °C for the first, 176 to 177 °C for the second.

Compared with `CC(C)C(=O)CNC(=O)c1ccccc1`, `O=C(O)[C@H](Cc1ccccc1)NC(=O)N1CCOCC1` is lower in melting point: 78 to 80 °C for the first, 57 to 60 °C for the second.

Compared with `COc1ccc(CNS(=O)(=O)Cc2ccc3[nH]cc(CC#N)c3c2)cc1`, `CCOC(=O)Cn1c(=O)n(Cc2ccc(Cl)cc2)c(=O)c2ccccc21` is lower in melting point: 144 to 145 °C for the first, 137 °C for the second.

First: CN(Cc1cc2c3c(c1)c(=O)c(C(=O)NCc1ccc(F)cc1)cn3CC(=O)N2C)C[C@@H](O)c1cnccn1
Second: Cc1nc(N2CCN(Cc3ccc(F)cc3)C2=O)sc1C(=O)NCc1cccnc1
The melting point of the first is lower: 108 to 110 °C for the first, 177 to 179 °C for the second.

Compared with `Nc1sc2c(c1C(=O)c1ccc(-c3ccccc3)cc1)CCN(C(=O)OCc1ccccc1)C2`, `COC(=O)C(Cc1ccccc1)Oc1ccc2cc(CNC(=O)c3oc4ccccc4c3C)ccc2c1Br` (stereo not drawn) is higher in melting point: 83 to 85 °C for the first, 129 to 133 °C for the second.

Compared with `CSc1c(C(C)C(=O)O)n(Cc2ccc(Cl)cc2)c2ccc(F)cc12` (stereo not drawn), `O=c1[nH]c2cc(F)ccc2n1-c1cc(Cl)ccc1O` is higher in melting point: 136 to 140 °C for the first, 256 to 260 °C for the second.

Compared with `COC=C(C(=O)OC)c1ccccc1O`, `CC1(C)OC(=O)c2c(O)cccc21` is higher in melting point: 125 to 126 °C for the first, 128 to 134 °C for the second.

First: CCCCCCCC(=O)CCC(=O)O
Second: CN(C#N)C(=O)CCCCCCCCC(=O)N(C)C#N
The melting point of the first is lower: 78 to 78.5 °C for the first, 83.4 to 84 °C for the second.

First: Cc1cn2c(=O)c(C(=O)O)cnc2c2cc([N+](=O)[O-])ccc12
Second: CCSc1nc2c(cc1F)c(=O)c(C(=O)O)cn2C1CC1
The melting point of the first is higher: 301 to 303 °C for the first, 242 to 244 °C for the second.

Compared with `Cc1c(F)c(F)cc(C(N)=O)c1F`, `CCNC(=O)c1ccc(F)c(F)c1` is lower in melting point: 105 to 108 °C for the first, 94.1 to 96.2 °C for the second.

Compared with `COc1ccc(OC)c(S(=O)(=O)n2c(COC(C)(C)C(=O)O)cc3cc(Cl)ccc32)c1`, `COC(=O)C(C)(C)OCC#Cc1cc(C(F)(F)F)ccc1NS(=O)(=O)c1ccc2nc(NC(C)=O)sc2c1` is lower in melting point: 156 to 158 °C for the first, 104 to 106 °C for the second.

First: C=CCCCCCCCCNC(=O)N[C@H]1CCCNC(=O)C1
Second: CCCCCCS(=O)(=O)NC(=O)CCc1cc(OC(C)C)nn1Cc1ccc(Cl)cc1Cl
The melting point of the first is lower: 98 to 99 °C for the first, 103 to 106 °C for the second.

First: O=C(Nc1ccccc1)C1CCNCC1
Second: c1ccc(CC2=NOC3(CCNCC3)C2)cc1
The melting point of the first is higher: 121 to 127 °C for the first, 51 to 54 °C for the second.

Compared with `CN1Cc2c(Cc3ccc4c(c3)C(=O)NC4=O)ncn2-c2ccsc2C1=O`, `COCOc1cc(Br)ccc1-c1cc(-c2cccc([N+](=O)[O-])c2)c(C#N)c(NC(=O)c2cccs2)n1` is lower in melting point: 245 to 246 °C for the first, 166 to 167 °C for the second.

First: CCC(O)c1cc2cc(OCC(=O)O)c(Cl)c(Cl)c2s1 (stereo not drawn)
Second: CC(C)CCNC(=O)c1c(N)cc(Cl)cc1Cl
The melting point of the first is higher: 156 to 158 °C for the first, 148 to 150 °C for the second.

Compared with `Cc1nccn1-c1nc(-c2ccc(Cl)cc2)c(CCC(=O)O)o1`, `O=C1c2ccc(Cl)cc2OCc2cccnc21` is lower in melting point: 195 to 197 °C for the first, 100 to 102 °C for the second.

First: O=c1cc(-c2cccc(OP(=O)(O)O)c2)[nH]c2ccc(N3CCCC3)cc12
Second: NC(=O)c1c(Cl)c(-c2ccccc2)n2c1CN(S(=O)(=O)c1ccc(F)cc1)CC2
The melting point of the first is higher: greater than 300 °C for the first, 177 to 178 °C for the second.

First: Cn1c(=O)[nH]c(=O)n(-c2cc(N)c(F)cc2Cl)c1=O
Second: N#CCCc1cc(N2C(=O)C3=C(CCCC3)C2=O)ccc1Cl
The melting point of the first is higher: 244 to 245 °C for the first, 87 to 97 °C for the second.

First: CC(=O)OC1CSC(Oc2cncc(C#N)c2)C(OC(C)=O)C1OC(C)=O (stereo not drawn)
Second: COc1ccc(C(=O)Oc2ccc(C(=O)O)c(C)c2)cc1C12CC3CC(CC(C3)C1)C2
The melting point of the first is lower: 147 °C for the first, 236 to 237 °C for the second.

Compared with `CC(C)(Oc1ccc(N)cc1)C(=O)O`, `COc1ccc(N2C(=O)NC3(CCOCC3)C2=O)cc1` is higher in melting point: 214 to 216 °C for the first, 253 to 254 °C for the second.

First: O=C(Oc1ccc(Oc2ccc(C(F)(F)F)cn2)cc1)N1CCN(c2cnccn2)CC1
Second: O=C1N(N2CCCCC2)c2ccccc2C1(Cc1ccnc(F)c1)c1ccccc1 (stereo not drawn)
The melting point of the first is higher: 160 to 161 °C for the first, 129 to 132 °C for the second.

First: CNC(=O)[C@@H]1C=CCN1C(=O)OC(C)(C)C
Second: CC(C)(C)C(=O)Nc1nc(Cl)c2ccnc-2[nH]1
The melting point of the first is lower: 47 to 48 °C for the first, greater than 210 °C for the second.

Compared with `O=c1[nH]c(C=Cc2ccc([N+](=O)[O-])o2)nc2ccccc12`, `O=C(CCl)c1cccn1Cc1ccccc1[N+](=O)[O-]` is lower in melting point: 327 °C for the first, 112 to 114 °C for the second.

First: CCOC(=O)c1c(C(C)(C)O)nc(CC)n1Cc1ccc(-c2ccccc2-c2nnn[nH]2)cc1
Second: CCC(CC)(CC(=O)Nc1cccc(OCc2ccc3ccc(C)cc3n2)c1)C(=O)O
The melting point of the first is higher: 166 to 167 °C for the first, 75 to 76 °C for the second.

Compared with `COc1cccc(C2(O)c3cccc(O)c3C(=O)c3c(O)cccc32)c1`, `O=C(c1nc(NNNc2ccccc2)nc(C(=O)c2ccccc2O)n1)c1ccccc1O` is lower in melting point: 187 °C for the first, 170 °C for the second.

First: CCCN(CCC)c1nsc(NC(=O)NC)c1C(N)=O
Second: CCOC(=O)c1cnc2nn(C)cc2c1NC(C)CC (stereo not drawn)
The melting point of the first is higher: 168 to 169 °C for the first, 132 to 134 °C for the second.

First: CC(C)Cn1c(CN2CCOCC2)nc2c(N)nc3c(c21)CCCC3
Second: O=C1CCC(O)=C1Cc1ccc(Br)cc1
The melting point of the first is lower: 165 to 172 °C for the first, 199 to 201 °C for the second.

First: NC(=O)c1cc(Cl)c(Cl)c(Cl)n1
Second: COC(=O)CCc1cnoc1-c1cc(Cl)c(Cl)s1
The melting point of the first is higher: 169 to 170 °C for the first, 49 to 50 °C for the second.

Compared with `CCOC(=O)c1c(C)nc2c(cnn2CC)c1Cl`, `CN(C)C(=O)Nc1ccc(Oc2ccc3sncc3c2)c(Cl)c1` is higher in melting point: 54 to 56 °C for the first, 149 °C for the second.

First: OC(c1ccc(F)cc1)(c1ccc(F)cc1)C1CCNCC1
Second: O=C(c1c(F)cccc1F)C1CC1c1ccc(Br)cc1 (stereo not drawn)
The melting point of the first is higher: 160 °C for the first, 64 to 65 °C for the second.

First: CC1(C)CCC(C)(C)c2cc(C(C(N)=O)C(=O)Nc3ccc(C(=O)O)cc3)ccc21 (stereo not drawn)
Second: COc1ccc2cc([C@H](C)C(=O)OC[C@@]3(C)COC(C)(C)O3)ccc2c1
The melting point of the first is higher: 112 to 113 °C for the first, 65 to 66 °C for the second.

Compared with `CC(=O)Oc1c(C)c(C)c(O)c(C(C)=NOCCOc2ccc(CC3SC(=O)NC3=O)cc2)c1C` (stereo not drawn), `COc1ccccc1CNCc1c(-c2ccccc2)c2cc(C)c(C)cc2c(=O)n1C` is higher in melting point: 60 to 75 °C for the first, 159 to 160 °C for the second.

Compared with `CN1CCCC(Cn2nc(-c3c(-c4ccccc4)nn4ccccc34)ccc2=O)C1` (stereo not drawn), `C[C@@H](n1cnc2cc(NCc3ccccc3)ccc2c1=O)[C@](O)(Cn1cncn1)c1ccc(F)cc1F` is lower in melting point: 159 to 160 °C for the first, 100 to 107 °C for the second.

First: CC(F)c1ncnc(NCc2ccc(C(C)(C)C)cc2)c1I (stereo not drawn)
Second: C=CCC(C#N)(C#N)Cc1ccc(Br)cc1
The melting point of the first is higher: 114 to 115 °C for the first, 61.7 °C for the second.

Compared with `CCCCn1cc(S(C)=O)c(=O)c2ccccc21` (stereo not drawn), `Cc1cccc(C(=O)n2c3c(c4ccccc42)CC(C(=O)O)(C(=O)O)CC3)c1` is higher in melting point: 103 to 105 °C for the first, 195 to 200 °C for the second.

With `COc1cc(N)c(Cl)cc1C(=O)CCC1CCNCC1` the melting point was 138 to 140 °C.
